Here are results for 5 molecules from PubChem BioAssay AID1918991 (Molecular Pharmacology Branch, DTP, NCI, 2023).

Values joined by “and” are separate entries in the source; they are usually repeats but may differ in a detail not shown here. Equal entries are not always repeated. A value given as a limit tells only on which side of the number the result lay.

This experiment has as its system 186277-243-T-J2-PDC complex spheroid growth. Kind of experiment: Anticancer human tumor 186277-243-T-J2-PDC patient-derived colon adenocarcinoma cell line growth inhibition [AhR]. The conditions noted are these: for viability, T/C: stronger effect = lower value. In outline:
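Complex tumor spheroids co-cultured with HUVEC and human MSC stroma; AhR antagonists tested in combination with standard-of-care and investigational agents. Top concentration at or near clinical Cmax (else 10 microM), half-log dilutions; growth expressed as percent test/control.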

Where [1] appears, read: curve of first compound, second compound 0.1 µM.
Setting [2] is: curve of first compound, second compound 0.316 µM.
Setting [3] is: curve of first compound, second compound 1 µM.
Setting [4] is: curve of first compound, second compound 3.16 µM.
Where [5] appears, read: curve of first compound, second compound 10 µM.
The mark [6] stands for this setting: second compound 0.1 µM, first compound 0.0316 µM.
The mark [7] stands for this setting: second compound 0.1 µM, first compound 0.1 µM.
The mark [8] stands for this setting: second compound 0.1 µM, first compound 0.316 µM.
Setting [9] is: second compound 0.1 µM, first compound 1 µM.
Setting [10] is: second compound 0.1 µM, first compound 3.16 µM.
Setting [11] is: second compound 0.1 µM, first compound 10 µM.
The mark [12] stands for this setting: second compound 0.316 µM, first compound 0.0316 µM.
[13] abbreviates: second compound 0.316 µM, first compound 0.1 µM.
The mark [14] stands for this setting: second compound 0.316 µM, first compound 0.316 µM.
[15] abbreviates: second compound 0.316 µM, first compound 1 µM.
Setting [16] is: second compound 0.316 µM, first compound 3.16 µM.
The mark [17] stands for this setting: second compound 0.316 µM, first compound 10 µM.
Where [18] appears, read: second compound 1 µM, first compound 0.0316 µM.
[19] abbreviates: second compound 1 µM, first compound 0.1 µM.
The mark [20] stands for this setting: second compound 1 µM, first compound 0.316 µM.
Where [21] appears, read: second compound 1 µM, first compound 1 µM.
The mark [22] stands for this setting: second compound 1 µM, first compound 3.16 µM.
[23] abbreviates: second compound 1 µM, first compound 10 µM.
Setting [24] is: second compound 3.16 µM, first compound 0.0316 µM.
[25] abbreviates: second compound 3.16 µM, first compound 0.1 µM.
The mark [26] stands for this setting: second compound 3.16 µM, first compound 0.316 µM.
The mark [27] stands for this setting: second compound 3.16 µM, first compound 1 µM.
Setting [28] is: second compound 3.16 µM, first compound 3.16 µM.
[29] abbreviates: second compound 3.16 µM, first compound 10 µM.
[30] abbreviates: second compound 10 µM, first compound 0.0316 µM.
Where [31] appears, read: second compound 10 µM, first compound 0.1 µM.
The mark [32] stands for this setting: second compound 10 µM, first compound 0.316 µM.
Setting [33] is: second compound 10 µM, first compound 1 µM.
Setting [34] is: second compound 10 µM, first compound 3.16 µM.
[35] abbreviates: second compound 10 µM, first compound 10 µM.
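Note: spheroids exposed to compounds for seven days before the viability read.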
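Throughout, for viability, T/C: luminescent signal used as a stand-in for viable cell amount; 100% = DMSO vehicle control wells.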

As for `CC1COCCN1c1cc(-c2ccnn2C)c2ccnc(-c3ccn[nH]3)c2n1` (stereo not drawn), the viability, T/C (as a rule, the ratio of treated to control) (compound 0.00316 µM) was 96.9% and 95.5% and 78.2%; the viability, T/C (compound 0.01 µM) was 94.7% and 106% and 89.9%; the viability, T/C (compound 0.0316 µM) is 126% and 103% and 38.2%; the viability, T/C (compound 0.316 µM) was 8.06% and 11.5% and 3.15%; the viability, T/C (compound 1 µM) is 5.02% and 8.23% and 2.74%. The IC50 (usually the point on the concentration scale where inhibition reaches its midpoint) (curve of compound) is 80.6 nM and 81.6 nM and 23.5 nM.

Turning to `Nc1ncn(C2CC(O)C(CO)S2)c(=O)n1` (stereo not drawn) + CC(CO)NC(=O)c1cc(-c2ccc(Cl)cc2)nn(-c2cnn(C)c2)c1=O, the IC50 under setting [1] was 139 nM; the IC50 under setting [2] worked out at 118 nM; the IC50 under setting [3] was 132 nM; the IC50 under setting [4] was found to be 142 nM; the IC50 under setting [5] came out at 118 nM. Further, the viability, T/C reads like this: (second compound 0.1 µM, first compound 0.000949 µM) 101%; (second compound 0.1 µM, first compound 0.003 µM) 94.8%; (second compound 0.1 µM, first compound 0.00949 µM) 93%; (second compound 0.1 µM, first compound 0.03 µM) 85.6%; (second compound 0.1 µM, first compound 0.0949 µM) 59.6%; (second compound 0.1 µM, first compound 0.3 µM) 29.9%. Besides, the viability, T/C by setting is: (second compound 0.316 µM, first compound 0.000949 µM) 83.6%; (second compound 0.316 µM, first compound 0.003 µM) 92.8%; (second compound 0.316 µM, first compound 0.00949 µM) 92.8%; (second compound 0.316 µM, first compound 0.03 µM) 93.1%; (second compound 0.316 µM, first compound 0.0949 µM) 55%; (second compound 0.316 µM, first compound 0.3 µM) 29.1%. Besides, the viability, T/C is, setting by setting: (second compound 1 µM, first compound 0.000949 µM) 102%; (second compound 1 µM, first compound 0.003 µM) 100%; (second compound 1 µM, first compound 0.00949 µM) 99.4%; (second compound 1 µM, first compound 0.03 µM) 94.2%; (second compound 1 µM, first compound 0.0949 µM) 56.7%; (second compound 1 µM, first compound 0.3 µM) 33.1%. Moreover, the viability, T/C by setting is: (second compound 3.16 µM, first compound 0.000949 µM) 82%; (second compound 3.16 µM, first compound 0.003 µM) 93%; (second compound 3.16 µM, first compound 0.00949 µM) 92%; (second compound 3.16 µM, first compound 0.03 µM) 85%; (second compound 3.16 µM, first compound 0.0949 µM) 59.8%; (second compound 3.16 µM, first compound 0.3 µM) 32%. Moreover, the viability, T/C is 89.1% (second compound 10 µM, first compound 0.000949 µM); 75.1% (second compound 10 µM, first compound 0.003 µM); 89.1% (second compound 10 µM, first compound 0.00949 µM); 66.8% (second compound 10 µM, first compound 0.03 µM); 55.1% (second compound 10 µM, first compound 0.0949 µM); 34.2% (second compound 10 µM, first compound 0.3 µM).

In the case of `COc1cccc2c1C(=O)c1c(O)c3c(c(O)c1C2=O)CC(O)(C(=O)CO)CC3OC1CC(N)C(O)C(C)O1` (stereo not drawn) + Cc1cncc(-c2nc(NCCc3c[nH]c4ccccc34)c3ncn(C(C)C)c3n2)c1, the IC50 by setting is: under setting [1], 200 nM; under setting [2], 171 nM; under setting [3], 163 nM; under setting [4], 126 nM; under setting [5], under 31.6 nM. The viability, T/C was 107% under setting [6]; 78.6% under setting [7]; 32.6% under setting [8]; 0.46% under setting [9]; 0.03% under setting [10]; 0.25% under setting [11]. The viability, T/C is 110% under setting [12]; 70.4% under setting [13]; 28.2% under setting [14]; 0.27% under setting [15]; 0.04% under setting [16]; 0.22% under setting [17]. The viability, T/C was 93.2% under setting [18]; 71.3% under setting [19]; 21.2% under setting [20]; 0.08% under setting [21]; 0.32% under setting [22]; 0.26% under setting [23]. The viability, T/C reads like this: under setting [24], 83.5%; under setting [25], 59.9%; under setting [26], 10.8%; under setting [27], 0.05%; under setting [28], 0.21%; under setting [29], 0.79%. For the same molecule, the viability, T/C under setting [30] was 21.9%; the viability, T/C under setting [31] was 18.5%; the viability, T/C under setting [32] was 3.26%; the viability, T/C under setting [33] is 0.12%; the viability, T/C under setting [34] was 0.49%; the viability, T/C under setting [35] was 0.31%.

As for `CC1(C)CCC(CN2CCN(c3ccc(C(=O)NS(=O)(=O)c4ccc(NCC5CCOCC5)c([N+](=O)[O-])c4)c(Oc4cnc5[nH]ccc5c4)c3)CC2)=C(c2ccc(Cl)cc2)C1` + Cc1cncc(-c2nc(NCCc3c[nH]c4ccccc34)c3ncn(C(C)C)c3n2)c1, the IC50 under setting [1] is over 10000 nM; the IC50 under setting [2] is over 10000 nM; the IC50 under setting [3] was over 10000 nM; the IC50 under setting [4] was over 10000 nM; the IC50 under setting [5] was over 10000 nM. Moreover, the viability, T/C is, setting by setting: under setting [6], 88.2%; under setting [7], 97.7%; under setting [8], 99.4%; under setting [9], 91.4%; under setting [10], 94.3%; under setting [11], 94.8%. The viability, T/C reads like this: under setting [12], 109%; under setting [13], 87.4%; under setting [14], 102%; under setting [15], 83.5%; under setting [16], 100%; under setting [17], 106%. The viability, T/C is, setting by setting: under setting [18], 102%; under setting [19], 85.5%; under setting [20], 97.4%; under setting [21], 97.9%; under setting [22], 103%; under setting [23], 103%. Besides, the viability, T/C by setting is: under setting [24], 110%; under setting [25], 108%; under setting [26], 105%; under setting [27], 103%; under setting [28], 109%; under setting [29], 105%. The viability, T/C by setting is: under setting [30], 77%; under setting [31], 81.6%; under setting [32], 82.8%; under setting [33], 95.5%; under setting [34], 88.4%; under setting [35], 88.5%.

As for `NS(=O)(=O)OCC1CC(n2ccc3c(NC4CCc5ccccc54)ncnc32)CC1O` (stereo not drawn), the viability, T/C is, setting by setting: (compound 0.0316 µM) 89.3% and 94.6% and 101%; (compound 0.1 µM) 102% (2×) and 88.4%; (compound 0.316 µM) 89.2% and 88.5% and 60.5%; (compound 1 µM) 45.8% and 44.2% and 18.4%; (compound 3.16 µM) 20.8% and 25.7% and 4.9%; (compound 10 µM) 5.48% and 7.98% and 1.51%. Moreover, the IC50 (curve of compound) was 949 nM and 927 nM and 412 nM.
